Data on 35 molecules can be found in patent USRE48711E1, “Apoptosis signal-regulating kinase inhibitors” (Gilead Sciences, Inc., priority 2009, dated 2021).

The test has as its target ASK1 (Apoptosis Signal-Regulating Kinase 1) (Homo sapiens (Human), UniProt Q99683). In words: ASK1 (Apoptosis Signal-Regulating Kinase 1) TR-FRET Kinase Assay (Biochemical IC50). The settings on record: TR-FRET, biotin-MBP substrate, 20 min pre-incubation, ATP added as 300 μM solution.

Sequence of ASK1 (Apoptosis Signal-Regulating Kinase 1) (Q99683 649-946): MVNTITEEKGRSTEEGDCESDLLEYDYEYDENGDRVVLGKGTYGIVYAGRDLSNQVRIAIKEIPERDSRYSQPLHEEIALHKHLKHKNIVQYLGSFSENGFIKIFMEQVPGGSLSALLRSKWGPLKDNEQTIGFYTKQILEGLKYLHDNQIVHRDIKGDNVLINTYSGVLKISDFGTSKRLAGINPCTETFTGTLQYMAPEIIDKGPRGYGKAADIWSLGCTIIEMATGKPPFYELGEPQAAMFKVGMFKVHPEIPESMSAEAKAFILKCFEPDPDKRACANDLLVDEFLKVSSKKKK
Description: The ability of compounds to inhibit ASK1 kinase activity was determined using a time resolved fluorescence resonance energy transfer [TR-FRET] assay utilizing biotinylated myelin basic protein [biotin-MBP] as the protein substrate. […] The enzyme was allowed to pre-incubate with compound for 20 minutes prior to initiating the kinase reaction with the addition of 5 μL/well 300 μM ATP in buffer (50 mM MOPS, pH 7.0, 5 mM Mg-acetate, 1 mM DTT, 5% DMSO) using the Decrac Fluidics Equator. The kinase reactions were allowed to proceed for 20 minutes at ambient temperature and were subsequently stopped with the addition of 5 μL/well 25 mM EDTA using the Deerac Fluidics Equator. […] The TR-FRET signal was then read on a Perkin. Elmer Envision plate reader after incubating the plates at ambient temperature for 2 hours.

`COc1cncc(-c2ccnc(C(=O)Nc3cccc(-c4nncn4C4CC4)c3)c2)c1` [Example 71, N-(3-(4-cyclopropyl-4H-1,2,4-triazol-3-yl)phenyl)-5-methoxy-3,4′-bipyridine-2′-carboxamide] gave an IC50 of 17 nM.

As for `Cn1cc(-c2ccnc(C(=O)Nc3cccc(-c4nncn4C4CC4)c3)c2)cn1` [Example 68, N-(3-(4-cyclopropyl-4H-1,2,4-triazol-3-yl)phenyl)-4-(1-methyl-1H-pyrazol-4-yl)picolinamide], it took 39 nM to reach half-maximal inhibition (IC50).

Molecule `CC(C)CSc1ccc(-c2ccnc(C(=O)Nc3cccc(-c4nncn4C4CC4)c3)c2)cn1` [Example 132, N-(3-(4-cyclopropyl-4H-1,2,4-triazol-3-yl)phenyl)-6-(isobutylthio)-3,4′-bipyridine-2′-carboxamide] came in with an IC50 of 150 nM.

Turning to `O=C(Nc1cccc(-c2nncn2C2CC2)n1)c1cc(-c2ccc(C3CC3)nc2)ccc1F` [Example 224, N-(6-(4-cyclopropyl-4H-1,2,4-triazol-3-yl)pyridin-2-yl)-5-(6-cyclopropylpyridin-3-yl)-2-fluorobenzamide], the IC50 stood at 13 nM.

In the case of `COc1ccc(-c2ccc(C3CC3)nc2)cc1C(=O)Nc1cccc(-c2nncn2C2CC2)c1` [Example 271, N-(3-(4-cyclopropyl-4H-1,2,4-triazol-3-yl)phenyl)-5-(6-cyclopropylpyridin-3-yl)-2-methoxybenzamide], the concentration for half-maximal inhibition (IC50) is 24 nM.

`CCc1cncc(-c2ccnc(C(=O)Nc3cccc(-c4nncn4C4CC4)c3)c2)c1` [Example 146, N-(3-(4-cyclopropyl-4H-1,2,4-triazol-3-yl)phenyl)-5-ethyl-3,4′-bipyridine-2′-carboxamide] gave an IC50 of 8 nM.

`O=C(Nc1cccc(-c2nncn2C2CC2)c1)c1cc(-c2cncc3ccccc23)ccn1` [Example 89, N-(3-(4-cyclopropyl-4H-1,2,4-triazol-3-yl)phenyl)-4-(isoquinolin-4-yl)picolinamide] yielded an IC50 of 26 nM.

Molecule `Cn1cnnc1-c1cccc(NC(=O)c2cc(N3CCOCC3)ccn2)c1` [Example 30, N-(3-(4-methyl-4H-1,2,4-triazol-3-yl)phenyl)-4-morpholinopicolinamide] returned an IC50 of 335 nM.

Regarding `COCCNc1ccc(-c2ccnc(C(=O)Nc3cccc(-c4nncn4C4CC4)c3)c2)cn1` [Example 136, N-(3-(4-cyclopropyl-4H-1,2,4-triazol-3-yl)phenyl)-6-(2-methoxyethylamino)-3,4′-bipyridine-2′-carboxamide], the IC50 turned out to be 7 nM.

In turn, `O=C(Nc1cccc(-c2cncn2C2CC2)c1)c1cc(-n2cnc3ccccc32)ccn1` [Example 88, 4-(1H-benzo[d]imidazol-1-yl)-N-(3-(1-cyclopropyl-1H-imidazol-5-yl)phenyl)picolinamide] returned an IC50 of 35 nM.

The molecule `Cc1cnc(C(=O)Nc2cccc(-c3nncn3C3CC3)c2)cc1-c1ccc(C2CC2)nc1` [Example 250, 6-cyclopropyl-N-(3-(4-cyclopropyl-4H-1,2,4-triazol-3-yl)phenyl)-5′-methyl-3,4′-bipyridine-2′-carboxamide] returned an IC50 of 8 nM.

As for `O=C(Nc1cccc(-c2nncn2C2CC2)c1)c1cc(-c2ccc(S(=O)(=O)NC3CC3)cc2)ccn1` [Example 96, N-(3-(4-cyclopropyl-4H-1,2,4-triazol-3-yl)phenyl)-4-(4-(N-cyclopropylsulfamoyl)phenyl)picolinamide], 13 nM corresponded to half-maximal inhibition (IC50).

Take `Cc1c(C(=O)Nc2cccc(-c3nncn3C3CC3)n2)cccc1-n1cnc(C2CC2)c1` [Example 196, 3-(4-cyclopropyl-1H-imidazol-1-yl)-N-(6-(4-cyclopropyl-4H-1,2,4-triazol-3-yl)pyridin-2-yl)-2-methylbenzamide]: 1260 nM corresponded to half-maximal inhibition (IC50).

In the case of `Cc1cn(-c2ccnc(C(=O)Nc3cccc(-c4nncn4C4CC4)n3)c2)cn1` [Example 159, N-(6-(4-cyclopropyl-4H-1,2,4-triazol-3-yl)pyridin-2-yl)-4-(4-methyl-1H-imidazol-1-yl)picolinamide], inhibition was half-maximal at 3 nM (IC50).

`O=C(Nc1cccc(-c2nncn2C2CC2)c1)c1cc(-c2ccc(F)nc2)ccn1` [Example 93, N-(3-(4-cyclopropyl-4H-1,2,4-triazol-3-yl)phenyl)-6-fluoro-3,4′-bipyridine-2′-carboxamide]: the IC50 stood at 43 nM.

On to `CS(=O)(=O)c1ccc(-c2ccnc(C(=O)Nc3cccc(-c4nncn4C4CC4)n3)c2)cc1` [Example 101, N-(6-(4-cyclopropyl-4H-1,2,4-triazol-3-yl)pyridin-2-yl)-4-(4-(methylsulfonyl)phenyl)picolinamide], for which inhibition was half-maximal at 7 nM (IC50).

Turning to `O=C(Nc1cccc(-c2nncn2C2CC2)c1)c1cc(-n2cnc3c2CCCC3)ccn1` [Example 86, N-(3-(4-cyclopropyl-4H-1,2,4-triazol-3-yl)phenyl)-4-(4,5,6,7-tetrahydro-1H-benzo[d]imidazol-1-yl)picolinamide], the IC50 amounted to 9 nM.

In turn, `CCC(C)n1cnnc1-c1cccc(NC(=O)c2cc(-c3ccc(C4CC4)nc3)ccn2)c1` (centres unmarked) [Example 229, N-(3-(4-sec-butyl-4H-1,2,4-triazol-3-yl)phenyl)-6-cyclopropyl-3,4′-bipyridine-2′-carboxamide] displayed an IC50 of 101 nM.

The molecule `Cn1cnnc1-c1cccc(NC(=O)c2cncc(-c3cccnc3)c2)c1` [Example 8, N-(3-(4-methyl-4H-1,2,4-triazol-3-yl)phenyl)-3,3′-bipyridine-5-carboxamide] gave an IC50 of 220 nM.

Consider `O=C(Nc1cccc(-c2nncn2C2CC2)c1)c1cc(-c2ccc(OCC(F)(F)F)nc2)ccn1` [Example 56, N-(3-(4-cyclopropyl-4H-1,2,4-triazol-3-yl)phenyl)-6-(2,2,2-trifluoroethoxy)-3,4′-bipyridine-2′-carboxamide], for which the midpoint of inhibition, the IC50, lay at 69 nM.

`O=C(Nc1cccc(-c2nncn2C2CC2)c1)c1cc(-c2ccccc2)ccn1` [Example 14, N-(3-(4-cyclopropyl-4H-1,2,4-triazol-3-yl)phenyl)-4-phenylpicolinamide] displayed an IC50 of 279 nM.

Regarding `CC(C)n1cnnc1-c1cccc(NC(=O)c2cc(-c3cccnc3)ccn2)c1` [Example 180, N-(3-(4-isopropyl-4H-1,2,4-triazol-3-yl)phenyl)-3,4′-bipyridine-2′-carboxamide], 27 nM corresponded to half-maximal inhibition (IC50).

As for `O=C(Nc1cccc(-c2nncn2CC(F)(F)F)c1)c1cc(-c2cccnc2)ccn1` [Example 58, N-(3-(4-(2,2,2-trifluoroethyl)-4H-1,2,4-triazol-3-yl)phenyl)-3,4′-bipyridine-2′-carboxamide], half-maximal inhibition (IC50) was put at 290 nM.

`O=C(Nc1cccc(-c2nncn2C2CC2)c1)c1cc(-c2ccc(NC3CC3)nc2)ccn1` [Example 120, N-(3-(4-cyclopropyl-4H-1,2,4-triazol-3-yl)phenyl)-6-(cyclopropylamino)-3,4′-bipyridine-2′-carboxamide] came in with an IC50 of 6 nM.

Turning to `O=C(Nc1cccc(-c2nncn2C2CC2)n1)c1cc(-n2cnc(C(F)(F)C(F)(F)F)c2)ccn1` [Example 199, N-(6-(4-cyclopropyl-4H-1,2,4-triazol-3-yl)pyridin-2-yl)-4-(4-(perfluoroethyl)-1H-imidazol-1-yl)picolinamide], 9 nM corresponded to half-maximal inhibition (IC50).

The molecule `O=C(Nc1cccc(-c2nncn2C2CCC2)c1)c1cc(-c2ccc(C3CC3)nc2)ccn1` [Example 221, N-(3-(4-cyclobutyl-4H-1,2,4-triazol-3-yl)phenyl)-6-cyclopropyl-3,4′-bipyridine-2′-carboxamide] displayed an IC50 of 31 nM.

`O=C(Nc1cccc(-c2nncn2C2CC2)c1)c1cc(-n2cnc3cnccc32)ccn1` [Example 83, N-(3-(4-cyclopropyl-4H-1,2,4-triazol-3-yl)phenyl)-4-(1H-imidazo[4,5-c]pyridin-1-yl)picolinamide] came in with an IC50 of 53 nM.

With `CC[C@H](C)n1cnnc1-c1cccc(NC(=O)c2cc(-c3ccc(C4CC4)nc3)ccn2)c1` [Example 237, (S)-N-(3-(4-sec-butyl-4H-1,2,4-triazol-3-yl)phenyl)-6-cyclopropyl-3,4′-bipyridine-2′-carboxamide], the 50% inhibitory concentration (IC50) came to 38 nM.

As to `O=C(Nc1cccc(-c2nncn2C2CC2)c1)c1cc(N2CCCC(O)C2)ccn1` (centres unmarked) [Example 174, N-(3-(4-cyclopropyl-4H-1,2,4-triazol-3-yl)phenyl)-4-(3-hydroxypiperidin-1-yl)picolinamide], the IC50 is 93 nM.

Take `C[C@@H](c1ccccc1)n1cnnc1-c1cccc(NC(=O)c2cccc(-n3cnc(C4CC4)c3)c2)n1` [Example 214, (S)-3-(4-cyclopropyl-1H-imidazol-1-yl)-N-(6-(4-(1-phenylethyl)-4H-1,2,4-triazol-3-yl)pyridin-2-yl)benzamide]: 159 nM corresponded to half-maximal inhibition (IC50).

Take `CC(C)(O)c1ccc(-c2ccnc(C(=O)Nc3cccc(-c4nncn4C4CC4)n3)c2)cn1` [Example 166, N-(6-(4-cyclopropyl-4H-1,2,4-triazol-3-yl)pyridin-2-yl)-6-(2-hydroxypropan-2-yl)-3,4′-bipyridine-2′-carboxamide]: half-maximal inhibition (IC50) was put at 5 nM.

In turn, `C[C@H]1C[C@@H]1n1cnnc1-c1cccc(NC(=O)c2cc(-c3cccnc3)ccn2)c1` [Example 55, N-(3-(4-((1S,2S)-2-methylcyclopropyl)-4H-1,2,4-triazol-3-yl)phenyl)-3,4′-bipyridine-2′-carboxamide] yielded an IC50 of 24 nM.

As to `CC(CN1CCCC1)n1cnnc1-c1cccc(NC(=O)c2cc(-c3ccc(C4CC4)nc3)ccn2)n1` (centres unmarked) [Example 245, 6-cyclopropyl-N-(6-(4-(1-(pyrrolidin-1-yl)propan-2-yl)-4H-1,2,4-triazol-3-yl)pyridin-2-yl)-3,4′-bipyridine-2′-carboxamide], the IC50 came to 36 nM.

On to `Cn1cnnc1-c1cccc(NC(=O)c2cc(-c3cccnc3)ccn2)c1` [Example 9, N-(3-(4-methyl-4H-1,2,4-triazol-3-yl)phenyl)-3,4′-bipyridine-2′-carboxamide], for which the IC50 is 42 nM.

In the case of `CCc1ncc(-c2ccnc(C(=O)Nc3cccc(-c4nncn4C4CC4)c3)c2)cn1` [Example 145, N-(3-(4-cyclopropyl-4H-1,2,4-triazol-3-yl)phenyl)-4-(2-ethylpyrimidin-5-yl)picolinamide], the IC50 was found to be 7 nM.
